From patent publication US9603900B2, “Use of PACAP for the treatment of viral infections in aquatic organisms” (Centro de Ingenieria Genetica y Biotecnologia, priority 2010, dated 2017)
Marks after values point to notes of the source that are not given here.

What was measured:
VPAC-1 receptor = VPAC-1 receptor expression (qPCR) in anterior kidney leukocytes treated with poly I:C; type: cell-based, rainbow trout (Oncorhynchus mykiss); conditions: cultured leukocytes, poly I:C, 4, 24 and 48 hours
PAC-1 receptor = PAC-1 receptor expression (qPCR) in head kidney leukocytes treated with poly I:C; type: cell-based, rainbow trout (O. mykiss); conditions: poly I:C 30 μg/mL, 4, 24 and 48 hours
Method: Juvenile rainbow trout (O. mykiss) was used from 9 to 12 grams and 7 months of age, VHSV and IPNV free. Fish were maintained at 14° C. with water circulation. Food was administered twice a day ad libitum. The virus, VHSV (strain 0771) and IPNV (strain Sp) were propagated in the rainbow trout gonad cell line RTG-2 (Sena and Rio (1975) Infect Immun 11:815-22). Cells were grown in minimal essential medium (MEM, Invitrogen, USA) supplemented with 10% of fetal calf serum (FCS, Invitrogen) containing 100 IU/mL of penicillin and 100 μg/mL of streptomycin. The viruses were inoculated into RTG-2 cells grown in MEM with antibiotics and 2% FCS at 14° C. […] The viral titers were determined in 96-well plates as reported by Reed and Muench (Reed and Muench ([…]) J Hyg 27:280-9). […]
Finally, total RNA was purified from leukocytes cultures using the method described by Chomczynski and Sacchi (Chomczynski and Sacchi (1987) Anal. Biochem. 162:156-9) to evaluate the expression levels of the PAC-1 receptor on leukocytes untreated and treated with Poly I:C or infected with viruses. […] For quantitative PCR reactions (qPCR) was used a mixture of PCR from commercial sources: Power SYBR Green PCR Master Mix (Applied Biosystems). […] The results were expressed as 2^−ΔCt, where ΔCt is equal to the remainder of the gene Ct value minus the assessed value of Ct normalizer gene (EF 1α).

[1] = system: IPNV (strain ATCC VR-299); assay: Rainbow trout experimentally infected with IPNV, treatment by immersion; type: in vivo, rainbow trout (O. mykiss); conditions: for Increment with respect to initial weight / Final Weight: 45 days post-infection; for Final Weight: initial 1.6 ± 0.4 g; for survival: 45 days, untreated infected 20%
Method: An experiment was conducted to evaluate the effect of administration of PACAP and PACAP-ribavirin combination in rainbow trout experimentally infected with IPNV. Eight experimental groups of 50 fish each at a body weight of 1.6±0.4 g were used. The water temperature was kept at 10-12° C. • Group 1: untreated fish not exposed to the virus • Group 2: untreated fish, exposed to the virus • Group 3: Group treated with ribavirin at a dose of 400 μg/L of water, exposed to the virus • Group 4: Group treated with ribavirin at a dose of 800 μg/L of water, exposed to the virus • Group 5: Group treated with PACAP at a dose of 100 μg/L of water, exposed to the virus • Group 6: Group treated with PACAP at a dose of 200 μg/L of water, exposed to the virus. • Group 7: Group treated with the combination 1 (ribavirina 400 μg/L-PACAP 100 μg/L, exposed to the virus.
Group 8: Group treated with the combination 2 (ribavirina 800 μg/L-PACAP 200 μg/L exposed to the virus.
The animals were fed twice a day with an amount equivalent to 3% of the total corporal weight in each tank. […] Fish in Groups 1 and 2 were subjected to the same stress treatment without the antiviral compound or without the PACAP-antiviral combination. The fish in Group 1 received the same procedure with cell culture medium instead of virus. […] Treatments with PACAP or with PACAP-antiviral combination were performed 3 times a week for 20 days. The first treatments were performed 2 h after viral infection. Experimental observations were made during the first 20 days of treatments and 25 days after it concluded. During the experiment (45 days) deaths and abnormal behavior of the fish were monitored.

[2] = system: IPNV (strain ATCC VR-299); assay: Atlantic salmon experimentally infected with IPNV, treatment by immersion; type: in vivo, Atlantic salmon (Salmo salar); conditions: for Increment / Final Weight: 45 days post-infection; for Final Weight: initial 1.2 ± 0.3 g; for survival: 45 days, untreated infected 30%
Method: An experiment was conducted to evaluate the effect of the administration of PACAP and PACAP-ribavirin combination for salmon (Salmo salar) experimentally infected with IPNV. Eight experimental groups were performed of 50 fish and a size of 1.2±0.3 g each one and were kept in water at 10-12° C.: • Group 1: untreated fish not exposed to the virus • Group 2: untreated fish, exposed to the virus • Group 3: Group treated with ribavirin at a dose of 400 μg/L of water, exposed to the virus • Group 4: Group treated with ribavirin at a dose of 800 μg/L of water, exposed to the virus • Group 5: Group treated with PACAP at a dose of 100 μg/L of water, exposed to the virus • Group 6: Group treated with PACAP at a dose of 200 μg/L, exposed to the virus • Group 7: Group treated with ribavirin 400 μg/L-PACAP 100 μg/L combination, exposed to the virus • Group 8: Group treated with ribavirin 800 μg/L-PACAP 200 μg/L combination, exposed to the virus.
The animals were fed twice a day with an amount equivalent to 3% of the total corporal weight in each tank. […] Treatments were performed 3 times a week for 20 days. Experimental observations were made during this period and 25 days after the last treatments. During the 45 days of the experiment deaths and abnormal behavior of the fish were monitored. Fish in Groups 1 and 2 were subjected to the same stress produced by the treatment without the antiviral compound or the combination of PACAP-antiviral. The fish in Group 1 received the same procedure with cell culture medium instead of the virus.

IPNV [3] = assay: Oysters experimentally infected with IPNV, viral titer in hepatopancreas; type: in vivo, oysters of the species Pecten maximus; conditions: two weeks after challenge, untreated infected 8.1
Method: Eight experimental groups were performed of 30 adult oysters each one and were kept in 250 L of filtered sea water at 10° C.
Treatments were performed 3 times a week for 20 days. Oysters were challenged by exposure to 25 L of water containing 10^7 TCID50 mL^−1 in tanks of 80 L. After 6 h the water was replaced at a slow flow of 1 L/min and at 12 h the flow was increased to 3 L/min.
Two weeks after challenge hepatopancreas samples were taken and determined the viral titer.

IPNV [4] = conditions: daily baths 0.4 and 0.8 μg/mL for two hours during 20 days; cited from earlier work
IHNV = assay: Rainbow trout experimentally infected with IHNV; type: in vivo, rainbow trout (O. mykiss); conditions: amantadine 400/800 μg/L, PACAP 100/200 μg/L or combinations, doses not told apart; untreated infected 26%
Method: The fish were challenged by immersion with 5.9×10^3 pfu/ml virus in 20 L of water with aeration for 1 hour.

Mx protein coding gene = assay: PACAP38 effect on transcription of Mx protein coding gene in leukocytes (qPCR); type: cell-based, rainbow trout (Oncorhynchus mykiss); conditions: 48 hours
Excerpt: (§1) Juvenile rainbow trout (O. mykiss) was used of approximately 50 grams, VHSV and IPNV free. Fish (n=5) were anesthetized with methanesulfonic acid salt (Sigma, USA) and were removed aseptically, first peripheral blood from the tail vein and then the anterior kidney were isolated from peripheral blood leukocytes from anterior kidney and trout from 5 independently, following the method described by Graham and Secombe (Graham and Secombe ([…]) Immunology 65:293-7).
(§2) The peripheral blood of each fish was diluted 4 times in half Leibovitz (L-15, Gibco, UK) supplemented with penicillin 100 IU/mL, streptomycin (100 μg/mL), heparin (10 units/mL) and 2% FCS and placed carefully on a Percoll gradient to 51%. The ring of cells corresponding to leukocytes was removed carefully, washed twice in L-15 containing 0.1% FCS.
(§3) The anterior kidney was passed through a nylon mesh of 100 μm Leibovitz (L-15, Gibco, UK) supplemented with penicillin 100 IU/mL, streptomycin (100 μg/mL), heparin (10 units/mL) and 2% FCS. The resulting cell suspension was diluted 1:4 in the same medium supplemented L-15 and placed carefully on a Percoll gradient to 51%. The ring of cells corresponding to leukocytes was removed carefully, washed twice in L-15 containing 0.1% FCS.
(§4) The cells were suspended in L-15 with 5% FCS at a concentration of 5×10^6 cells per ml and dispensed in 24-well plates at 1 mL per well. The leukocytes were treated with 3 doses of PACAP38 from Clarias gariepinus obtained by chemical synthesis (10^−10 M, 10^−9 M and 10^−8 M) in duplicate and used as negative control untreated leukocytes dispensed in duplicate.
(§5) The levels of Mx, IFN and TLR9 were evaluated 48 hours after treatment. In order to do so, total RNA was purified from leukocyte cultures treated with PACAP by the method described by Chomczynski and Sacchi (Chomczynski and Sacchi (1987) Anal. Biochem. 162:156-9).
(§6) For the synthesis of cDNA it was used a commercial reagent kit uses SuperScript III reverse transcriptase (Invitrogen). Finally, for quantitative PCR reactions (qPCR) was used a mixture of PCR from commercial sources: Power SYBR Green PCR Master Mix (Applied Biosystems). The qPCR results were normalized against a constitutive endogenous constitutive expression gene specifically elongation 1α (EF 1α) and were performed in triplicate. The results were expressed as 2^−ΔCt, where ΔCt is equal to the remainder of the gene Ct value minus the assessed value of Ct normalizer gene EF 1α).

IFN γ coding gene = assay: PACAP38 effect on transcription of IFN γ coding gene in leukocytes (qPCR); type: cell-based, rainbow trout (Oncorhynchus mykiss); conditions: 48 hours
Excerpt: as §1, §2, §3, §4, §5, §6

TLR9 coding gene = assay: PACAP38 effect on transcription of TLR9 coding gene in leukocytes (qPCR); type: cell-based, rainbow trout (Oncorhynchus mykiss); conditions: 48 hours
Excerpt: as §1, §2, §3, §4
The levels of Mx, IFN and TLR9 were evaluated 48 hours after treatment. […]
as §6, with “The qPCR results were normalized against a constitutive endogenous constitutive expression gene specifically elongation 1α (EF 1α) and were performed in triplicate.” left out

[5] = Groups 3, 5, 7: ribavirin 400 μg/L, PACAP 100 μg/L or combination 1
[6] = Groups 4, 6, 8: ribavirin 800 μg/L, PACAP 200 μg/L or combination 2
[7] = Groups 3, 5, 7: ribavirin 400 μg/L, PACAP 100 μg/L or both
[8] = Groups 4, 6, 8: ribavirin 800 μg/L, PACAP 200 μg/L or both
[9] = head kidney leukocytes, 10^−9 M

poly I:C
levels of VPAC-1 expression relative to EF1α (VPAC-1 receptor): over-expressed | levels of PAC-1 expression relative to EF1α (PAC-1 receptor): over-expressed

NC(=O)c1ncn([C@@H]2O[C@H](CO)[C@@H](O)[C@H]2O)n1 [ribavirin]
Increment with respect to initial weight [1, 5]: 137% | Final Weight [1, 5]: 3.8 ± 1.1^c g | survival [1, 5]: 68% | Increment with respect to initial weight [1, 6]: 131% | Final Weight [1, 6]: 3.7 ± 1.0^c g | survival [1, 6]: 70% | day on which appetite was recovered ([1]; rainbow trout, IPNV, both doses, untreated infected: day 15): 13 days | day on which signs of disease were detected ([1]; rainbow trout, IPNV, treatments 3 times a week for 20 days, both doses, untreated infected: day 6): 8 days | day on which early signs of disease were detected ([2]; Atlantic salmon, IPNV, both doses, untreated infected: day 6): 10 days | Increment [2, 7]: 83% | Final Weight [2, 7]: 2.2 ± 0.4^c g | Increment [2, 8]: 92% | Final Weight [2, 8]: 2.3 ± 0.5^c g | survival ([2]; high dose: ribavirin 800 μg/L or PACAP 200 μg/L): 76% | survival ([2]; low dose: ribavirin 400 μg/L or PACAP 100 μg/L): 70% | IPNV average viral titer in the hepatopancreas (IPNV [3]; [5]): 5.4^b log10TCID50 g^−1 | IPNV average viral titer in the hepatopancreas (IPNV [3]; [6]): 4.3^b log10TCID50 g^−1

C#Cc1c(C(N)=O)ncn1[C@@H]1O[C@H](CO)[C@@H](O)[C@H]1O [EICAR, 5-ethynyl-1-β-D-ribofuranosylimidazole-carboxamide]
viral load in liver and spleen (RT-PCR) (IPNV [4]): decrease in viral load

NC12CC3CC(CC(C3)C1)C2 [amantadine]
survival (IHNV): 46%

PACAP38
Mx protein expression levels relative to negative control (Mx protein coding gene; [9]): stimulatory effect | Mx protein expression levels relative to negative control (Mx protein coding gene; peripheral blood leukocytes, 10^−8 M): did not differ | Mx protein expression levels relative to negative control (Mx protein coding gene; peripheral blood leukocytes, 10^−9 M, below levels at 10^−10 M): stimulatory effect | Mx protein expression levels relative to negative control (Mx protein coding gene; peripheral blood leukocytes, 10^−10 M): increase | IFN γ expression levels versus control group (IFN γ coding gene; anterior kidney leukocytes, 10^−9 and 10^−8 M): statistically higher than the control group | dose giving the best IFN γ expression results (IFN γ coding gene; anterior kidney leukocytes): 10^−9 M | IFN γ expression levels (IFN γ coding gene; peripheral blood leukocytes, 3 doses (10^−10, 10^−9, 10^−8 M), undetectable in non-treated cultures): detectable levels of expression | dose giving the highest IFN γ expression level (IFN γ coding gene; peripheral blood leukocytes): 10^−9 M | TLR9 expression levels versus negative control (TLR9 coding gene; [9]): statistically higher than the negative control | TLR9 expression levels (TLR9 coding gene; peripheral blood leukocytes, 10^−10-10^−8 M, undetectable in unstimulated cultures): detectable levels | dose giving the highest TLR9 expression values (TLR9 coding gene; peripheral blood leukocytes): 10^−10 M
